From US10065990B2, “Cyclic peptide compound, and preparation method, pharmaceutical composition and use thereof” (HANGZHOU GUANYU BIO-MEDICAL CO., LTD, priority 2013, dated 2018)
Like-named read-outs stand apart in the source and are kept apart here.

Assays:
HDAC3 = HDAC3 (Homo sapiens, UniProt O15379); assay: HDAC biochemical activity measurement (fluorescent substrate deacetylation);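 note: fluorogenic acetyl-lysine substrate (20 µM) deacetylated by HDAC3, then developer added for 15 min at room temperature, release of fluorophore read at excitation 360 nm, emission 460 nm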
Chain of HDAC3 (O15379 whole entry, species assumed): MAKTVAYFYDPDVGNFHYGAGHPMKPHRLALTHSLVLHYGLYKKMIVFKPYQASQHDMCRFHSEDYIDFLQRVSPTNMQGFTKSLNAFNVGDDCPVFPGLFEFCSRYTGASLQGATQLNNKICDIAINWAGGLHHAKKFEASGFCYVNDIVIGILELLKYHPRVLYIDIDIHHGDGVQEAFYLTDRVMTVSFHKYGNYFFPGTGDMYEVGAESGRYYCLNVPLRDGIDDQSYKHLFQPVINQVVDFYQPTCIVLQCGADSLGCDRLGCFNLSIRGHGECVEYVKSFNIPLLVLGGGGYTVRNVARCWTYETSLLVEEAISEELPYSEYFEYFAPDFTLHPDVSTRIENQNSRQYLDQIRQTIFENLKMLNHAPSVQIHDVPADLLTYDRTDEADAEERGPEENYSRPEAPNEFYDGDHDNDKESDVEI
Chain of HDAC3 (Q9Y618 395-489 partner limits assumed, species assumed): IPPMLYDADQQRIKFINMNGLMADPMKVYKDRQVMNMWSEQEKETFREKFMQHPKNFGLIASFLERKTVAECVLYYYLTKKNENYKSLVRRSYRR

[1] = tested on: U937 (human leukemia cells); assay: MTT cancer cell growth inhibition; assay type: cell-based; details: Homo sapiens, U-937, 72 h, MTT, 72 hours incubation, read-out: GI50 U93
Method in brief: (§1)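 Cells seeded at 1500/well in DMEM or RPMI 1640 with 10% FBS, incubated overnight, then exposed to compound at 10^−5 to 10^−10 M final in triplicate for 72 h at 37° C, 5% CO2. MTT added for 4 h, formazan dissolved in DMSO, absorbance read at 570 nm; GI50 derived from viability.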

[2] = tested on: N-87 (human gastric cancer cells); assay: MTT cancer cell growth inhibition; assay type: cell-based; details: Homo sapiens, 72 h, MTT, 72 hours incubation, N-87 cells; read-out: GI50 N-87
Method in brief: as §1

[3] = tested on: BGC-823 (human gastric cancer cells); assay: MTT cancer cell growth inhibition; assay type: cell-based; details: Homo sapiens, BGC-823, 72 h, MTT, 72 hours incubation, read-out: GI50 BG
Method in brief: as §1

[4] = tested on: Huh-7 (human hepatoma cells); assay: MTT cancer cell growth inhibition; assay type: cell-based; details: Homo sapiens, Huh-7, 72 h, MTT, 72 hours incubation, Huh-7 cells; read-out: GI50 Huh-7
Method in brief: as §1

[5] = tested on: MCF-7 (human breast cancer cells); assay: MTT cancer cell growth inhibition; assay type: cell-based; details: Homo sapiens, MCF7, 72 h, 72 hours incubation, read-out: GI50 MCF
Method in brief: as §1

[6] = tested on: MDA-MB-231 (breast cancer cells); assay: MTT cancer cell growth inhibition; assay type: cell-based; details: Homo sapiens, MDA-MB-231, 72 h, read-out: GI50 MDA-MB-231, MTT, 72 hours incubation, MDA-MB-231 cells
Method in brief: as §1

[7] = tested on: SGC-7901 (human gastric cancer cells); assay: MTT cancer cell growth inhibition; assay type: cell-based; details: Homo sapiens, SGC-7901, 72 h, MTT, 72 hours incubation, SGC-7901 cells; read-out: GI50 SGC-7901
Method in brief: as §1

[8] = tested on: H1975 (non-small cell lung adenocarcinoma); assay: MTT cancer cell growth inhibition; assay type: cell-based; details: Homo sapiens, NCI-H1975, 72 h, MTT, 72 hours incubation, H1975 cells; read-out: GI50 H1975
Method in brief: as §1

[9] = tested on: MOLT-4 (human acute lymphoblastic leukemia cells); assay: MTT cancer cell growth inhibition; assay type: cell-based; details: Homo sapiens, MOLT-4, 72 h, MTT, 72 hours incubation, read-out: GI50 Mol
Method in brief: as §1

[10] = tested on: lncap (prostate cancer cells); assay: MTT cancer cell growth inhibition; assay type: cell-based; details: Homo sapiens, LNCaP, 72 h, MTT, 72 hours incubation, read-out: GI50 lnca
Method in brief: as §1

[11] = tested on: KBM5-T315I (human chronic myelogenous leukemia); assay: MTT cancer cell growth inhibition; assay type: cell-based; details: Homo sapiens, 72 h, MTT, 72 hours incubation, KBM5-T315I cells; read-out: GI50 KBM5-T315I
Method in brief: as §1

[12] = tested on: PANC-1 (Pac-1, human pancreatic cancer cells); assay: MTT cancer cell growth inhibition; assay type: cell-based; details: Homo sapiens, PANC-1, 72 h, MTT, 72 hours incubation, read-out: GI50 PAN
Method in brief: as §1

[13] = tested on: HCC827 (human non-small cell lung cancer cells); assay: MTT cancer cell growth inhibition; assay type: cell-based; details: Homo sapiens, HCC827, 72 h, MTT, 72 hours incubation, HCC827 cells; read-out: GI50 HCC827
Method in brief: as §1

[14] = tested on: DU145 (human prostate cancer cells); assay: MTT cancer cell growth inhibition; assay type: cell-based; details: Homo sapiens, DU-145, 72 h, MTT, 72 hours incubation, read-out: GI50 Du1
Method in brief: as §1

[15] = tested on: Hela (human cervical cancer cells); assay: MTT cancer cell growth inhibition; assay type: cell-based; details: Homo sapiens, HeLa, 72 h, MTT, 72 hours incubation, read-out: GI50 Hela
Method in brief: as §1

[16] = tested on: Bel-7402 (human hepatoma cells); assay: MTT cancer cell growth inhibition; assay type: cell-based; details: Homo sapiens, Bel-7402, 72 h, MTT, 72 hours incubation, Bel-7402 cells; read-out: GI50 Bel-7402
Method in brief: as §1

[17] = tested on: HT1080 (human fibrosarcoma cells); assay: MTT cancer cell growth inhibition; assay type: cell-based; details: Homo sapiens, HT-1080, 72 h, MTT, 72 hours incubation, read-out: GI50 HT1
Method in brief: as §1

[18] = tested on: KBM-5 (human chronic myelogenous leukemia); assay: MTT cancer cell growth inhibition; assay type: cell-based; details: Homo sapiens, KBM5, 72 h, MTT, 72 hours incubation, KBM-5 cells; read-out: GI50 KBM-5
Method in brief: as §1

[19] = tested on: A549 (human lung cancer cells); assay: MTT cancer cell growth inhibition; assay type: cell-based; details: Homo sapiens, A549, 72 h, MTT, 72 hours incubation, read-out: GI50 A54
Method in brief: as §1

[20] = tested on: K562 (human leukemia cells); assay: MTT cancer cell growth inhibition; assay type: cell-based; details: Homo sapiens, K562, 72 h, MTT, 72 hours incubation, K562 cells; read-out: GI50 K562
Method in brief: as §1

HDAC1 = HDAC1 (Homo sapiens, UniProt Q13547); assay: HDAC biochemical activity measurement (fluorescent substrate deacetylation);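 note: fluorogenic acetyl-lysine substrate (20 µM) deacetylated by HDAC1, then developer releases fluorophore read at 360 nm excitation and 460 nm emission, inhibitor incubated 30 min at 37 °C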
Chain of HDAC1 (Q13547 whole entry, species assumed): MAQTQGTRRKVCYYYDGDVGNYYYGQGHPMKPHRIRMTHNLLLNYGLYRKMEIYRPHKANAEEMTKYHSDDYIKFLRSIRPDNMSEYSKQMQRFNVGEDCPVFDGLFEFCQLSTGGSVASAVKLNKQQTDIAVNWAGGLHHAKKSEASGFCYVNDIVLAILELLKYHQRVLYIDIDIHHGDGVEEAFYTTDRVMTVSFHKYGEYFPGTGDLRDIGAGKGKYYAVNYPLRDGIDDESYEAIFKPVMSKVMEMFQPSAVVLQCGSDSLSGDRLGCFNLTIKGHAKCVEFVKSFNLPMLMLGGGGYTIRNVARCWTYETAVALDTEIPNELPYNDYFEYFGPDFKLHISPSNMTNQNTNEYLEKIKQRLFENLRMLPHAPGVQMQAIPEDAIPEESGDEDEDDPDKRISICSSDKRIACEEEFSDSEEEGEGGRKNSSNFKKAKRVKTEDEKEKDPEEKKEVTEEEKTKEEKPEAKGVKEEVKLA

HDAC2 = HDAC2 (Homo sapiens, UniProt Q92769); assay: as above; details: 37° C. 30 minutes;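 note: HDAC2 enzyme with an acetyl-lysine fluorescent substrate, then developer added, fluorescence read at excitation 360 nm and emission 460 nm, inhibition measured across several compound concentrations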
Chain of HDAC2 (Q92769 whole entry, species assumed): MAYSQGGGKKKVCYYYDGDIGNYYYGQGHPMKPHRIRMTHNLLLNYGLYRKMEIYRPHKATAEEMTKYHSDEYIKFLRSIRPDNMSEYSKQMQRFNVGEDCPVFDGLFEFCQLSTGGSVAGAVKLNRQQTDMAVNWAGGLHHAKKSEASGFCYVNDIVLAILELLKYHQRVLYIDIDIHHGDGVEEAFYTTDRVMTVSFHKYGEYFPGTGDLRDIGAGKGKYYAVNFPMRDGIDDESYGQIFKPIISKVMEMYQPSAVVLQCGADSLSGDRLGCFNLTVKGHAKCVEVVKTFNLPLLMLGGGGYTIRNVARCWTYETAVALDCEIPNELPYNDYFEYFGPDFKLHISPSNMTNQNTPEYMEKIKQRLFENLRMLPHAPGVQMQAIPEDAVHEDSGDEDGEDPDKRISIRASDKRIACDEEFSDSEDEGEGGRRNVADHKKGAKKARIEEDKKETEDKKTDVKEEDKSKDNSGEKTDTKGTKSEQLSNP
Method: The chemical activity of the compound is determined according to the degree of deacetylation inhibition of the HDAC enzyme. This experiment measured the degree of deacetylation related to tumor proliferation and metastasis of HDAC1, HDAC2, HDAC3, HDAC8, HDAC11 five subtypes HDAC enzymes. After the substrate containing an acetylated lysine side chain and HDAC enzyme are labeled with a fluorescent label, the fluorescent substrate is de acetyl. The fluorescent labeled substrate is cleaved by the enzyme, and the fluorescent substance is released, which generates 460 nm emission light under the excitation of 360 nm light.
HDAC substrate was diluted with reaction buffer to 200M (reaction concentration of 20M), the HDAC enzyme was diluted to the appropriate concentration, then added different concentrations of the test compounds and acted at 37° C. 30 minutes, and then added the same volume of 2-times concentration substrate developing solution (developer), incubated at room temperature for 15 minutes.

[21] = HDAC1, 37° C. 30 minutes, read-out: IC50 HDAC1

GI50 [1] [nM] | GI50 [2] [nM] | GI50 [3] [nM] | GI50 [4] [nM] | GI50 [5] [nM] | GI50 [6] [nM] | GI50 [7] [nM] | GI50 [8] [nM] | GI50 [9] [nM] | GI50 [10] [nM] | GI50 [11] [nM] | GI50 [12] [nM] | GI50 [13] [nM] | GI50 [14] [nM] | GI50 [15] [nM] | GI50 [16] [nM] | GI50 [18] [nM] | GI50 [20] [nM] | IC50 (HDAC1; [21]) [nM] | IC50 (HDAC2) [nM] | Structure (SMILES) | other results
17900 | 27 | 2100 | 43 | 49500 | 93 | 51 | 39 | 700 | 82100 | 19 | 4100 | 49 | 6100 | 21000 | 91 | 82 | 25 | 181 | 56 | C/C=C1\NC(=O)c2cccc(n2)CNC(=O)C[C@@H](/C=C/CCSC(C)=O)OC(=O)[C@H](CCCCNC(=O)OCC2c3ccccc3-c3ccccc32)NC1=O [Compound 16] | IC50 (HDAC3; read-out: IC50 HDAC3, HDAC3, 37° C. 30 minutes): 49 nM; GI50 [17]: 1300 nM; GI50 [19]: 4200 nM; IC50 (HDAC1; Table 3, read-out: IC50 HDAC1, D (non-substituent)): 181 nM
 | 11 |  | 89 |  | 52 | 33 | 32 |  |  | 32 |  | 49 |  |  | 51 | 36 | 41 | 92 | 36 | C/C=C1\NC(=O)c2ccc(SC)c(n2)CNC(=O)C[C@@H](/C=C/CCSC(=O)CCCCCCC)OC(=O)[C@H](Cc2ccccc2)NC1=O [Compound 191] | IC50 (HDAC3): 62 nM; GI50 ([1]; U937 cells): 30 nM; GI50 ([3]; BGC-823 cells): 100 nM; GI50 ([5]; MCF-7 cells): 170 nM; GI50 ([9]; MOLT-4 cells): 50 nM; GI50 ([10]; lncap cells): 310 nM; GI50 ([12]; PANC-1 cells): 50 nM; GI50 ([14]; DU145 cells): 40 nM; GI50 ([15]; Hela cells): 130 nM; GI50 ([17]; HT1080 cells): 50 nM; GI50 ([19]; A549 cells): 70 nM
60 | 65 | 60 | 29 | 70 | 29 | 45 | 63 | 20 | 20 | 77 | 70 | 72 | 40 | 80 | 72 | 83 | 46 | 46 | 52 | C/C=C1\NC(=O)c2nc(ccc2F)CNC(=O)C[C@@H](/C=C/CCSC=O)OC(=O)[C@H](C(C)C)NC1=O [Example 51] | IC50 (HDAC3): 51 nM; GI50 [17]: 70 nM; GI50 [19]: 40 nM
